This note sets out measurements from patent publication US7507834B2, “Substituted anilinopyrazoles” (SmithKline Beechan Corporation, priority 2003, dated 2009).

The experiment deals with CDK2 (Homo sapiens, UniProt P24941). The experiment can be described thus: CDK2 substrate phosphorylation assay. It is filed as biochemical. The settings on record: CDK2 expressed in baculovirus system; peptide Biotin-aminohexyl-ARRPMSPKKKA-NH2, [g-32P]ATP; pIC50 = −log10(IC50). As for the experimental part:
The compounds of the present invention have valuable pharmacologic properties. Different compounds from this class are particularly effective at inhibiting CDK2. Substrate phosphorylation assays were carried out as follows:
Cyclin dependent protein kinase 2 assays utilized the peptide Biotin-aminohexyl-ARRPMSPKKKA-NH2 (SEQ ID NO:1) as phosphoryl group acceptor. CDK2 was expressed utilizing a baculovirus expression system and was partially purified to comprise 20-80% of total protein, with no detectable competing reactions present. Typically, assays were performed by incubating enzyme (0.2-10 nM), with and without inhibitor, peptide substrate ([…]), [g-32P]ATP ([…]), and 10-20 mM Mg2+ for periods of time generally within the range 10-120 minutes. Reactions were terminated with 0.2-2 volumes of either 20% acetic acid or 50-100 mM EDTA buffered to pH 7 (substrate consumption <20%). The buffer employed in enzyme assay was 100 mM HEPES pH 7.5 containing 0.1 mg/mL BSA and 5% DMSO. Inhibitors were diluted in 100% DMSO prior to addition into the assay. Detection of peptide phosphorylation was accomplished by scintillation counting following either collection of peptide onto phosphocellulose filters (for reactions stopped with acetic acid), collection of peptide in wells of 96 well plates coated with Streptavidin (Pierce) (reactions were stopped with EDTA), or addition of Avidin coated Scintillant impregnated beads (Scintillation Proximity Assays from Amersham, reactions were stopped with EDTA). Counts detected by any of these methodologies minus the appropriate background (assays with additional 40 mM EDTA or lacking peptide substrate) were assumed to be proportional to the reaction initial rates, and IC50s were determined by a least squares fit to the equation CPM=Vmax*(1−([I]/(K+[I])))+nsb, or −pIC50s were determined by a fit to the equation CPM=nsb+(Vmax−nsb)/(1+(x/10x−pIC50)), where nsb are the background counts […]. Radioactivity was determined by liquid scintillation counting.
For the compound `Nc1cccc(-c2cc(Nc3ccc(S(N)(=O)=O)cc3)[nH]n2)c1` [Compound Ij, 4-[5-(3-Amino-phenyl)-2H-pyrazol-3-ylamino]-benzenesulfonamide], the IC50 (usually the point on the concentration scale where inhibition reaches its midpoint) was 1.02 to 10 nM. The result for `NS(=O)(=O)c1ccc(Nc2cc(-c3cccc(NC(=O)Nc4cc(C(F)(F)F)ccc4F)c3)n[nH]2)cc1` [Compound Il, 4-(5-{3-[3-(2-Fluoro-5-trifluoromethyl-phenyl)-ureido]-phenyl}-2H-pyrazol-3-ylamino)-benzenesulfonamide] reads 10.2 to 100 nM; that for `Nc1ccc(-c2cc(Nc3ccc(S(N)(=O)=O)cc3)[nH]n2)cc1` [Ih, 4-[5-(4-Amino-phenyl)-2H-pyrazol-3-ylamino]-benzenesulfonamide], 0.102 to 1 nM. For `NS(=O)(=O)c1ccc(Nc2cc(-c3cccc(N4CCOCC4)c3)n[nH]2)cc1` [In, 4-[5-(3-Morpholin-4-yl-phenyl)-2H-pyrazol-3-ylamino]-benzenesulfonamide], the IC50 was 102 to 20000 nM.
